“Also recorded” adds a separate entry of the source.
What was measured:
[1] = system: Human dermal fibroblasts; test: UVA-induced gene expression in dermal fibroblasts (QPCR); type: cell-based; settings: NRH 200 μM for 5 days, UVA 5 or 7.5 J/cm^2
Experimental: Human dermal fibroblasts were grown in regular culture media as described in example 1 and seeded in 12-well plates at 2×10^5 cells per well for overnight. Before UVA exposure, culture media were removed and PBS (500 μl) was added to each well. Cells were treated with NRH at 200 μM in culture media for 5 days, and only exposed to UVA at 5 J/cm^2 or 7.5 J/cm^2 every other day on day 0 and day 3. The Newport DS-101103 UV Solar Simulator with UV-A-F filter (Sol-UV-A-F) (Newport Corporate) was used as the UVA emitter. Measurement of the irradiation was taken using an ILT-1400-A radiometer/photometer with a UVA probe (SSL001A, international light technologies, Inc.). After UVA exposure, PBS was removed from each well and media with NRH were added to cells. Cells were harvested for RNA isolation after 5 days treatment.

[2] = system: Human dermal fibroblasts; test: TNFα-induced gene expression in dermal fibroblasts (QPCR); type: cell-based; settings: 30 hr
Experimental: Human dermal fibroblasts were grown in regular culture media as described in example 23 above and seeded in 12-well plates at 2×10^5 cells per well for overnight. Cells were then replenished with fresh medium and treated with TNFα (10 ng/ml) with and without NRH (200 μM) for 30 hr. At the end of the incubation, cells were washed once with HBSS with Ca^2+ and Mg^2+ (Life Technologies), and subject to RNA isolation and QPCR analyses.

[3] = Storage in a 93% RH salt chamber; type: physicochemical; settings: approximately 22° C., approximately 2¼ hours
Experimental: XRD indicated the sample was amorphous (FIG. 16). A sample of NRH was stored in a 93% RH (relative humidity) salt chamber (at approximately 22° C.) for approximately 2¼ hours. The sample had deliquesced and there was no evidence of crystallization based on XRD analysis.

[4] = system: Reconstructed human epidermis (EpiDerm, EPI-200); test: UVB-induced inflammation mediators in reconstructed epidermal equivalents; type: cell-based; settings: topical 1 hr pre-treatment, NRH 0.1% or niacinamide 3%; UVB 150 mJ/cm^2; media 6 hr post irradiation
Excerpt: Solar Ultraviolet (UV) light exposure on skin causes photoaging, sunburn, DNA damages and carcinogenesis. UV radiation (UVR) also results in inflammation, which can be measured in vitro by pro-inflammatory mediators, e.g., TNF-α, IL-8. The in vitro reconstructed human epidermis (RHE) model is used to evaluate the anti-inflammatory effect of NRH.
Reconstructed human epidermis (EpiDerm, EPI-200, made of normal human epidermal keratinocytes, MatTek, Ashland, Mass.), were placed into media (EPI-100-ASY, 1.0 ml/well of 6-well plates) and incubated overnight at 37° C./5% CO2. The media was replenished with fresh culture media prior to study. NRH at 0.1% and niacinamide at 3% in vehicle (50% H2O/35% ethanol/15% propylene glycol, v/v/v) were applied topically at 6 μl and then gently spread onto the skin equivalents (˜20 rotations) using the rubber side of a plunger of 1 ml syringe. Vehicle was served as an untreated control. After 1 hr pre-treatment with NRH, niacinamide, or vehicle control, the EpiDerm tissues were transferred to a sterile 6-well plate containing 1 ml of DPBS per well and then exposed to UVB at 150 mJ/cm^2. The Newport Solar Simulator System (Power unit 69920, and Lamp 91192-1000, Newport Corporate, Irvine, Calif.) was used as the UVB emitter to achieve a UVB irradiation of 150 mJ/cm^2. Measurement of the irradiation was taken using an ILT-1400 Handheld, Portable Radiometer/Photometer (International Light Technologies, Inc., Peabody, Mass.) with a UVB detector (SEL240/T2ACT5, 235-307 nm, International Light Technologies, Inc.). After UVB irradiation, EpiDerm tissues were transferred back to the 6-well plate containing media and incubated at 37° C./5% CO2 for 6 hours. At the end of the incubation (6 hr post UVB irradiation), culture media were collected for the measurement of IL-8, and TNF-α concentration by MagPix (Millipore, HCYTOMAG-60K).

[5] = Gravimetric Vapor Sorption (GVS); type: physicochemical
Procedure, shortened: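 Samples dried under nitrogen 5 h at 25 °C, then sorption ramp from 5% to 95% or 90% RH and desorption back to 5% or 10% RH, all at 25 °C. Each RH step held 4 h; mass change by microbalance.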

[6] = system: Human primary dermal fibroblasts (HDFa); test: Intracellular NAD measurement in human primary dermal fibroblasts; type: cell-based; settings: different concentrations, 3 hrs, absorbance at 405 nm
Experimental: Human primary dermal fibroblasts derived from adult human skins (HDFa, Life technologies, Grand Island, N.Y., Passage 2-4) were grown in Medium 106 (Life Technologies) supplemented with Low Serum Growth Supplement (LSGS) (Life Technologies) and seeded in 12-well plates with density at 2×10^5 cells per well and 2 ml of culture medium in each well.
Stock solution of dihydronicotinamide riboside (NRH, GSK3008320A, GSK, RTP, NC) was prepared in ethanol at 100 mM (25.6 mg/ml) and stored at −20° C. Cells were treated with different concentrations of NRH for 3 hrs, washed twice with PBS containing 5 mM EDTA, and then subject to Nicotinamide adenine dinucleotide (NAD) measurement. In brief, acetonitrile (ACN) lysis buffer (Ammonium Acetate (50 mM) and 90% acetonitrile) was added to each well (200 μl/well) to lyse the cells at RT for 5-10 mins by gently rotating on a culture plate shaker at a low speed. […] At the end of incubation, the supernatant (200 μl) of the reaction solution from each well was transferred to each well of a 96-well plate and absorbance was read twice in the 96-well plate at 405 nm using a plate reader (Spectra Maxplus, Molecular Devices, Sunnyvale, Calif.). […]

In the case of `NC(=O)C1=CN([C@@H]2O[C@H](CO)[C@@H](O)[C@H]2O)C=CC1` [NRH, dihydronicotinamide riboside], the “COX-2 expression compared to UVA alone” value [1] is reported as “reduced; also recorded: decreases”, the “NQO-1 expression compared to UVA alone” value [1] is reported as “increases” and the “NRF-2 expression compared to UVA alone” value [1] is reported as “increases”. For the same molecule, the “basal COX-2 gene expression” value ([2]; NRH 200 μM) was “reduced”, the “expression level of NRF2” value ([2]; NRH 200 μM) was “slightly increased” and the “TNF-α-induced COX-2 gene expression” value ([2]; TNFα 10 ng/ml with NRH 200 μM) was “reduced”. For the same molecule, the “behaviour on storage at high humidity” value [3] was “deliquesced”, the “UVB-induced IL-8” value [4] was “inhibited; also recorded: reduces” and the “UVB-induced TNF-α” value [4] was “inhibited; also recorded: reduces”. For the same molecule, the GVS weight gain ([5]; 90% RH, 25° C., after drying) was “greater than 60 % w/w”, the “hygroscopicity by GVS” value ([5]; GVS isotherm 25° C.) was “hygroscopic” and the NAD level [6] was “dose-dependently increases NAD; also recorded: dose-dependently increases NAD^+”.
